pIC50: −log10 of the molar value.
Experiments:
HepG2 = assay: Cytotoxicity against human HepG2 cells assessed as reduction in cell viability measured after 72 hrs by SRB assay; type: functional, cell-based; settings: for pIC50: HepG2, 72 h
[1] = target: Nicotinamide phosphoribosyltransferase (Homo sapiens, UniProt P43490); assay: Inhibition of NAMPT (unknown origin) using NAM and PRPP as substrates incubated for 2 hrs in presence of ATP by fluorimetric plate reader assay
Chain of Nicotinamide phosphoribosyltransferase (P43490 whole entry): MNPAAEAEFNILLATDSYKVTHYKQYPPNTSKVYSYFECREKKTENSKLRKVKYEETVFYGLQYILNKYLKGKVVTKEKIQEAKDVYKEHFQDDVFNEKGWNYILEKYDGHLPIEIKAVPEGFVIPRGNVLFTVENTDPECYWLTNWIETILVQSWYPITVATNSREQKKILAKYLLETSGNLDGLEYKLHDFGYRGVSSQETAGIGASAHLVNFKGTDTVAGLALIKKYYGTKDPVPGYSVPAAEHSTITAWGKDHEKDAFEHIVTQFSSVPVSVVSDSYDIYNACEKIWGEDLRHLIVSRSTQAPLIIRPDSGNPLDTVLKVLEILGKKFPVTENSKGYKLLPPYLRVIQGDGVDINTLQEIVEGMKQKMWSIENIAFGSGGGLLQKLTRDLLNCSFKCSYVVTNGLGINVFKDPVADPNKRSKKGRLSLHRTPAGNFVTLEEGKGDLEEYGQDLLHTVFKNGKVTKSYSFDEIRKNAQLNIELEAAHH

Row | Compound | inhibition (HepG2) | pIC50 (HepG2) | pIC50 [1]
1 | CCCOC(=O)c1ccc(NC(=O)NCc2cccnc2)cc1 | Dose-dependent effect | 4.82 | 5.67
2 | CCOC(=O)c1ccc(NC(=O)NCc2ccnc(-n3ccnc3C)c2)cc1 | – | 4.61 | 5.14
3 | O=C(/C=C/c1cccnc1)NCCCCC1CCN(C(=O)c2ccccc2)CC1 [DAPORINAD] | – | 7.73 | –
